12 compounds from PubChem BioAssay (NCI) can be followed below.

Where “and” joins values, the source holds several entries; their conditions need not be identical. Equal values may be shown once.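 The compound was tested at five concentrations on cells cultured in 96-well plates, with a 48-hour exposure period. The concentration for 50% growth inhibition is given as GI50. TGI is the concentration that stops growth completely.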

Some test systems named below: SR leukemia; KM12 colon; SW-620 colon; TK-10 renal; MDA-MB-231 breast; A549 NSCLC; HT29 colon; CAKI-1 renal; HCT-15 colon; M14 melanoma.
What all share (experiment): growth of human tumour cells (NCI), 48 h

On to `COc1ccc([C@H]2O[C@@H](CO)C[C@]2(O)c2ccc(OC)cc2)cc1`, for which the GI50 is 49.8 µM in the test on SR leukemia; greater than 100 µM with KM12 colon; greater than 100 µM with SW-620 colon; greater than 100 µM in the test on TK-10 renal; greater than 100 µM in the test on MDA-MB-231 breast; greater than 100 µM in the test with A549 NSCLC. For the same compound, the GI50 with HT29 colon, in the test on CAKI-1 renal and in the test on HCT-15 colon was greater than 100 µM in each case. Also, the TGI in the test with SR leukemia, with KM12 colon, in the test on SW-620 colon, in the test on TK-10 renal, in the test with MDA-MB-231 breast and in the test on A549 NSCLC was greater than 100 µM each time. For the same compound, the TGI in the test on HT29 colon, with CAKI-1 renal and with HCT-15 colon was greater than 100 µM throughout.
With `Cn1c(=O)c2[nH]c(COc3ccc(C(C)(C)C)cc3)nc2n(C)c1=O`, the GI50 is 5.12 µM with SR leukemia; 15 µM in the test on M14 melanoma; 15.9 µM with KM12 colon; 27 µM with SW-620 colon; 23.9 µM in the test on TK-10 renal; 41.4 µM with MDA-MB-231 breast. Moreover, the GI50 in the test on A549 NSCLC was 18.9 µM; in the test with HT29 colon, 29.3 µM; in the test with CAKI-1 renal it was 12 µM; with HCT-15 colon, 19.9 µM. In addition, the TGI with SR leukemia was 55.9 µM; with M14 melanoma it was 41.4 µM; with KM12 colon, 44 µM; in the test with SW-620 colon, greater than 100 µM; in the test on TK-10 renal, 99.6 µM; in the test with MDA-MB-231 breast, greater than 100 µM. The TGI with A549 NSCLC, in the test on HT29 colon, with CAKI-1 renal and in the test with HCT-15 colon was greater than 100 µM each time.
On to `COc1ccc(/C=C\c2cc(OC)c(OC)c(OC)c2)c(NS(=O)(=O)c2ccc(C)cc2)c1O`, for which the GI50 is 0.031 µM in the test on SR leukemia; 0.0307 µM in the test with M14 melanoma; 0.0383 µM with KM12 colon; 0.0447 µM in the test with SW-620 colon; 3.8 µM in the test with TK-10 renal; 0.0516 µM in the test with MDA-MB-231 breast. The GI50 in the test on A549 NSCLC is 0.0473 µM; with HT29 colon, 0.813 µM; with CAKI-1 renal, 0.0938 µM; with HCT-15 colon, 0.0395 µM. Besides, the TGI was greater than 51.5 µM in the test with SR leukemia; greater than 33.2 µM with M14 melanoma; greater than 100 µM with SW-620 colon; greater than 100 µM in the test with TK-10 renal; 29.9 µM in the test on MDA-MB-231 breast; greater than 100 µM with A549 NSCLC. Moreover, the results for the TGI in the test with HT29 colon, with CAKI-1 renal and with HCT-15 colon were greater than 45.7 µM, greater than 100 µM and greater than 81.6 µM, respectively.
For `O=c1[nH]c(-c2ccc(C(F)(F)F)cc2)nc2c1CSCC2`, the GI50 with SR leukemia was greater than 100 µM; with M14 melanoma, 68.7 µM; with KM12 colon, greater than 100 µM; in the test with SW-620 colon, greater than 100 µM; in the test on TK-10 renal, 23.8 µM; in the test with MDA-MB-231 breast, 40.4 µM. In addition, the GI50 in the test on A549 NSCLC is 32.9 µM; in the test on HT29 colon it was greater than 76.8 µM; with CAKI-1 renal, 13.7 µM; with HCT-15 colon, greater than 100 µM. Besides, the TGI is greater than 100 µM in the test with SR leukemia; greater than 100 µM in the test on M14 melanoma; greater than 100 µM in the test on KM12 colon; greater than 100 µM in the test on SW-620 colon; 66.8 µM with TK-10 renal; greater than 100 µM with MDA-MB-231 breast. The TGI in the test on A549 NSCLC, in the test on HT29 colon, with CAKI-1 renal and with HCT-15 colon was greater than 100 µM each time.
As for `Cc1nc(NC(=O)N2CCC[C@H]2C(N)=O)sc1-c1ccnc(C(C)(C)C(F)(F)F)c1`, the GI50 in the test on SR leukemia was 8.94 µM and > 10 µM; in the test on M14 melanoma, 8.75 µM and > 10 µM; in the test with KM12 colon, 15.4 µM and > 10 µM; in the test on SW-620 colon, 4.82 µM and 7.37 µM; with TK-10 renal it was 1.2 µM and 0.789 µM; in the test with MDA-MB-231 breast it was 11.3 µM and > 10 µM. In addition, the GI50 in the test on A549 NSCLC is 2.94 µM and 4.74 µM; in the test with HT29 colon, 0.488 µM and 0.477 µM; in the test on CAKI-1 renal, 2.39 µM and 3.35 µM; in the test with HCT-15 colon, 1.36 µM and 2.81 µM. For the same compound, the TGI with SR leukemia is 44.1 µM and > 10 µM; in the test on M14 melanoma, greater than 82 µM; in the test on KM12 colon, greater than 91.5 µM; with SW-620 colon, greater than 67.1 µM; in the test with TK-10 renal, 15.8 µM and > 10 µM; in the test with MDA-MB-231 breast it was 32 µM and > 10 µM. In addition, the TGI in the test on A549 NSCLC was 30.9 µM and > 10 µM; in the test on HT29 colon it was 20.8 µM and > 10 µM; in the test with CAKI-1 renal, 17.8 µM and > 10 µM; with HCT-15 colon, 47 µM and > 10 µM.
Regarding `C#Cc1ccc(NC(=O)c2ccc(/C=C/C(=O)c3nccn3C)cc2)cc1`, the GI50 is 0.115 µM in the test with SR leukemia; 0.47 µM with M14 melanoma; 0.421 µM in the test with KM12 colon; 0.382 µM with SW-620 colon; 0.905 µM with TK-10 renal; 0.761 µM in the test on MDA-MB-231 breast. In addition, the GI50 was 0.702 µM in the test with A549 NSCLC, 0.54 µM in the test on HT29 colon, 0.51 µM in the test with CAKI-1 renal and 0.28 µM in the test on HCT-15 colon. The TGI in the test on SR leukemia turned out to be 3.33 µM; in the test with M14 melanoma it was 0.96 µM; in the test on KM12 colon it was 0.99 µM; with SW-620 colon, 1.01 µM; with TK-10 renal it was 4.66 µM; with MDA-MB-231 breast, 2.71 µM. Also, the TGI in the test on A549 NSCLC was determined as 5.02 µM; in the test on HT29 colon it was 1.32 µM; with CAKI-1 renal it was 1.34 µM; in the test on HCT-15 colon, 1.6 µM.
Regarding `CC(=O)/C(C)=N/N/C(N)=N\S(=O)(=O)c1cc(C(=O)Nc2ccccc2)c(Cl)cc1SCc1ccccc1`, the GI50 in the test with SR leukemia was 6.2 µM; with M14 melanoma, 1.08 µM; in the test on KM12 colon, 60.2 µM; in the test on TK-10 renal, 62.4 µM; in the test with MDA-MB-231 breast, 5.94 µM; in the test on A549 NSCLC, 30.5 µM. Also, the GI50 in the test with HT29 colon is 61.6 µM; in the test with CAKI-1 renal, greater than 100 µM; in the test on HCT-15 colon, greater than 100 µM. Moreover, the TGI with SR leukemia was greater than 100 µM; in the test with M14 melanoma, 3.95 µM; with KM12 colon it was greater than 100 µM; in the test on TK-10 renal, greater than 100 µM; with MDA-MB-231 breast, greater than 100 µM; in the test with A549 NSCLC, greater than 100 µM. In addition, the TGI in the test on HT29 colon, with CAKI-1 renal and with HCT-15 colon was greater than 100 µM each time.
On to `c1ccc(-c2nc(N3CCNCC3)c3nc(-c4ccccc4)oc3n2)cc1`, for which the GI50 with SR leukemia was 0.298 µM; in the test on M14 melanoma it was 1.96 µM; in the test on KM12 colon it was 1.91 µM; in the test with SW-620 colon it was 1.86 µM; with TK-10 renal, 1.67 µM; with MDA-MB-231 breast, 1.67 µM. Besides, the GI50 with HT29 colon was 1.84 µM; with CAKI-1 renal, 1.55 µM; with HCT-15 colon, 1.66 µM. Further, the TGI in the test on SR leukemia was determined as 1.2 µM; with M14 melanoma, 3.71 µM; in the test with KM12 colon it was 3.6 µM; in the test with SW-620 colon, 3.57 µM; in the test with TK-10 renal, 3.32 µM; with MDA-MB-231 breast, 3.2 µM. For the same compound, the TGI with HT29 colon worked out at 3.85 µM; in the test on CAKI-1 renal, 2.94 µM; in the test with HCT-15 colon it was 3.18 µM.
Regarding `CC(=O)OC1CCC2(C)C(=CC(C3C=C4CC(OC(C)=O)CCC4(C)C4=C3C3CC5OC6(CCC(C)CO6)C(C)C5C3(C)CC4)C3=C2CCC2(C)C3CC3OC4(CCC(C)CO4)C(C)C32)C1` (configuration not stated), the TGI came to 28.3 µM with SR leukemia; 26.9 µM with M14 melanoma; 35.7 µM in the test with KM12 colon; 27.6 µM in the test on TK-10 renal; 32 µM with MDA-MB-231 breast; 26.5 µM with A549 NSCLC. For the same compound, the results for the TGI with HT29 colon, in the test on CAKI-1 renal and in the test on HCT-15 colon were 27.2 µM, 32.1 µM and 28.4 µM, respectively.
For `O=Nc1c(O)ccc2ccccc12`, the GI50 in the test with SR leukemia is 2.16 µM; in the test with M14 melanoma it was 1.92 µM; in the test with KM12 colon, 5.26 µM; in the test with SW-620 colon, 2.46 µM; in the test on MDA-MB-231 breast it was 2.03 µM; in the test with A549 NSCLC, 4.9 µM. Besides, the GI50 in the test with HT29 colon was 3.41 µM; with CAKI-1 renal it was 3.1 µM; in the test with HCT-15 colon, 3.85 µM. Besides, the TGI in the test with SR leukemia came out at 5.86 µM; in the test on M14 melanoma it was 3.84 µM; in the test on KM12 colon, 18.4 µM; in the test with SW-620 colon, 8.04 µM; with MDA-MB-231 breast, 10.2 µM; with A549 NSCLC, 17.5 µM. Besides, the TGI with HT29 colon worked out at 10.7 µM; in the test on CAKI-1 renal, 12.1 µM; in the test with HCT-15 colon it was 15.9 µM.
On to `COc1ccc(/C=C2\N=C3SC=C(N)N3C2=O)cc1`, for which the GI50 was 1.02 µM in the test on SR leukemia; 1.21 µM with M14 melanoma; 3.08 µM with KM12 colon; 1.34 µM in the test on SW-620 colon; 1.05 µM with MDA-MB-231 breast; 1.64 µM with A549 NSCLC. Besides, the GI50 was 1.21 µM in the test on HT29 colon, 1.32 µM with CAKI-1 renal and 0.817 µM in the test on HCT-15 colon. Further, the TGI in the test on SR leukemia came to 4.85 µM; with M14 melanoma, 4.73 µM; in the test on KM12 colon it was 15.6 µM; in the test with SW-620 colon, 6.07 µM; in the test with MDA-MB-231 breast it was 3.63 µM; in the test with A549 NSCLC, 15.6 µM. Also, the TGI with HT29 colon came out at 3.37 µM; in the test with CAKI-1 renal, 7.01 µM; in the test on HCT-15 colon it was 3.98 µM.
With `CCNCC(O)c1ccc(N)c([N+](=O)[O-])c1` (configuration not stated), the TGI in the test on SR leukemia, in the test with M14 melanoma, with SW-620 colon, with TK-10 renal, with MDA-MB-231 breast and in the test with A549 NSCLC was greater than 100 µM throughout. Moreover, the TGI in the test on HT29 colon, in the test on CAKI-1 renal and in the test with HCT-15 colon was greater than 100 µM throughout.
